From publication PMC12640667 (Chemmedchem, 2025)
Where “and” joins values, the source holds several entries; their conditions need not be identical. Identical values can stand only once. Like-named read-outs stand apart in the source and are kept apart here.

Tests used:
[1] = cited from earlier work
[2] = cited from earlier work; remark: listed apart in the source
Hb [3] = target: T1, Hb (Homo sapiens, UniProt P69905); experiment: Oxygen equilibrium curve; assay type: biochemical; details: 2 mM; SS blood lysates; relative to untreated controls
Hb [4] = target: T1, Hb; experiment: Hb modification; assay type: binding; details: 2 mM; SS blood lysates; percentage fraction of total Hb area
Hb [5] = target: T1, Hb; experiment: Time-dependent Hb oxygen equilibrium; assay type: biochemical; details: at 3 h; 2 mM; normal whole blood, hematocrit 20%, 37 °C
[6] = tested on: human cytochrome P450 (CYP) enzymes; experiment: CYP inhibition panel of seven CYP enzymes, pooled human liver microsomes; assay type: in vitro ADME; details: CYP1A2, CYP2C8, CYP2C9, CYP2C19, CYP2D6, CYP3A4, CYP2B6; 0.1–100 µM

% P50 shift (Hb [3])	% Hb modification (Hb [4]) [%]	P50 shift (Hb [5]) [%]	inhibition of liver CYP isozymes [6]	Structure (SMILES)	half‐life [1] [h]	aq. solubility ([2]; in water at 25 °C) [µg/mL]	aq. solubility ([2]; at 25 °C, ref PubChem CID 237,332)
				CC(C)n1nccc1-c1ncccc1COc1cccc(O)c1C=O [Voxelotor]	> 50	< 100	
27% and 27.2 ± 4.9%	33.8 ± 11.7	35	no inhibition	O=Cc1ccc(CO)o1 [5‐HMF, 5‐hydroxymethylfurfural]	< 2.2		≈ 400 mg mL^−1
